Data published in patent US5487990A (The General Hospital Corporation, priority 1992, dated 1996).

B1: Acetyl-CoA Hydrolase from S. cerevisiae (Saccharomyces cerevisiae S288C) (protein)
chain: MTISNLLKQRVRYAPYLKKVKEAHELIPLFKNGQYLGWSGFTGVGTPKAVPEALIDHVEKNNLQGKLRFNLFVGASAGPEENRWAEHDMIIKRAPHQVGKPIAKAINQGRIEFFDKHLSMFPQDLTYGFYTRERKDNKILDYTIIEATAIKEDGSIVPGPSVGGSPEFITVSDKVIIEVNTATPSFEGIHDIDMPVNPPFRKPYPYLKVDDKCGVDSIPVDPEKVVAIVESTMRDQVPPNTPSDDMSRAIAGHLVEFFRNEVKHGRLPENLLPLQSGIGNIANAVIEGLAGAQFKHLTVWTEVLQDSFLDLFENGSLDYATATSVRLTEKGFDRAFANWENFKHRLCLRSQVVSNNPEMIRRLGVIAMNTPVEVDIYAHANSTNVNGSRMLNGLGGSADFLRNAKLSIMHAPSARPTKVDPTGISTIVPMASHVDQTEHDLDILVTDQGLADLRGLSPKERAREIINKCAHPDYQALLTDYLDRAEHYAKKHNCLHEPHMLKNAFKFHTNLAEKGTMKVDSWEPVD

How the values were obtained:
[1] = test system: mitochondrial enzyme from hamster brown fat; details: cited from earlier work
[2] = target: T1, Acetyl-CoA Hydrolase from S. cerevisiae (Saccharomyces cerevisiae, UniProt P32316); experiment: biochemical
T1 sequence (P32316 1-526): B1 chain
Procedure: The assay mixture was incubated at 30° C. for 0.30 s, 1 min, 2 min, 3 min, 4 min, and 5 min. The reaction was stopped by adding 20 μl of 10 M acetic acid. The sample was evaporated by N2 stream at 30° C. to dryness in a fume hood, dissolved in 100 μl H2 O, and transferred to a scintillation vial containing 10 ml Ready-Solv EP scintillation cocktail. The sample tube was washed twice with 100 μl H2 O, each wash was transferred to the scintillation vial, and the radioactivity was determined by scintillation counting for 1 min.
nucleotides and divalent cations in 100 mM potassium phosphate, pH 7.4.
The enzyme activity was determined under standard radioactive assay
conditions using ACTH (1-24) (N = 3), as described in the Examples.
acylCoA in 100 mM phosphate buffer, pH 7.4.

[3] = target: T1, Acetyl-CoA Hydrolase from S. cerevisiae; experiment: Substrate specificity, colorimetric assay (DNTB, A412); assay type: biochemical; details: read-out: Relative Activity (%)
[4] = substrate: CC(=O)SCCNC(=O)CCNC(=O)[C@H](O)C(C)(C)COP(=O)(O)OP(=O)(O)OC[C@H]1O[C@@H](n2cnc3c(N)ncnc32)[C@H](O)[C@@H]1OP(=O)(O)O; experiment: purified protein, by the assay type; details: other: substrate acetyl-CoA; Lineweaver-Burk plot; pH 7.4; 30.0 °C
[5] = pH 7.4, read-out: Enzyme Activity (%)

| Molecule | Km [1] [µM] | effect on yeast enzyme activity (in words) [2] | remaining activity at 100 µM [2, 5] [%] | remaining activity at 1000 µM [2, 5] [%] | remaining activity at 5000 µM [2, 5] [%] | Km ([2]; substrate acetyl-CoA, Lineweaver-Burk plot, read-out: apparent Km) [µM] | activity at 250 µM [3] [%] | Km [4] [µM] |
| --- | --- | --- | --- | --- | --- | --- | --- | --- |
| CC(=O)SCCNC(=O)CCNC(=O)[C@H](O)C(C)(C)COP(=O)(O)OP(=O)(O)OC[C@H]1O[C@@H](n2cnc3c(N)ncnc32)[C@H](O)[C@@H]1OP(=O)(O)O [Acetyl-CoA, acetyl coenzyme A] | 51 | inhibited most effectively | 66 | 28 | 5 | 62 | 100 | – |
| B1 | – | – | – | – | – | – | – | 62 |
